# How the values were obtained:
# Assay type in all cases: ADME
# [1] = Kinetic constant relative(Vmax) was determined in FPGS-catalyzed reaction
# [2] = Ratio of relative Vmax to Km was determined
# [3] = tested on: FPGS (folylpolyglutamate synthetase); assay: Kinetic constant(Km) was determined in FPGS-catalyzed reaction
Relative Vmax [1],Ratio [2],Km [3],SMILES
0.23,0.0023,100 µM,CN(Cc1cnc2nc(N)nc(N)c2n1)c1ccc(C(=O)NC(CC(F)C(=O)NC(CCC(=O)O)C(=O)O)C(=O)O)cc1 (centres undefined)
0.45,0.012,38 µM,CN(Cc1cnc2nc(N)nc(N)c2n1)c1ccc(C(=O)NC(CCC(=O)NC(CCC(=O)O)C(=O)O)C(=O)O)cc1 (centres undefined)
1,0.024,42 µM,CN(Cc1cnc2nc(N)nc(N)c2n1)c1ccc(C(=O)N[C@@H](CCC(=O)O)C(=O)O)cc1 [METHOTREXATE]
